Tested on: CD4+ T cells
Assay: RNAseq differential gene expression
Format: cell-based, human
Excerpt: All statistical analyses and plots were done with R software v3.5. For normalization and processing, we used edgeR v3.22.1, EDASeq v2.14 and DESeq2 v1.20. We decided to use counts per million (CPM) over transcripts per million (TPM) mainly because TPM discards a lot of information about the original count sizes and thus would have produced too much noise for differential testing. The first step was to filter the data. We considered a gene to be expressed at a reasonable level in a sample if it had at least five counts for each million mapped reads in that sample. For marker selection, we used a type 1^(*) error α threshold set to 5%. enabling a highly flexible approach to the differential analyses despite the lack of replicates. For the same reason, the log2 fold change cutoff was set to 1.5 for both positive and negative values, and the cutoff p-value was typically ≤0.05. Those appropriate cutoffs allowed us to identify differentially expressed genes. The false discovery rate (FDR) values were computed for illustration purposes but were not taken into account in the decision due to the lack of replicates. The first methodology choice was Benjamini and Hochberg. This procedure provides less stringent control of type 1 errors compared to familywise error rate (FWER) procedures (such as the Bonferroni correction). We added an MDS plot for the data with R and edgeR package. The MDS plot produces a plot in which distances between samples correspond to the leading biological coefficient of variation (BCV) between those samples. […] We also produced several volcano plots with R and the EDASeq package. These plots were a good representation of the differential expression (DE) testing in the RNA-Seq experiments. […] The green points highlighted are markers that satisfied our selection criteria (significant in both p-value and log2FC). The yellow points highlighted are genes that satisfied the log2FC criterion but failed the p-value criterion. We retained these points to investigate further even though they had no decisional value.
A full-detailed report describing the complete analysis was submitted to Gene Expression Omnibus (GEO, https://www.ncbi.nlm.nih.gov/geo/query/acc.cgi?acc=GSE116073). Total RNA extraction was performed according to the Qiagen miRNeasy □ kit. RNA concentrations were determined using Qubit[…] fluorometric quantification and purity by the RNA 6000 Bioanalyzer kit (Agilent). RNA-Seq libraries were constructed with the TruSeq stranded mRNA sample preparation (low-throughput protocol) kit from Illumina, according to the manufacturer's instructions. Aliquots of 1.2 μg of total RNA were used for the construction of the libraries. The final cDNA libraries were validated with a Fragment Analyzer (Advanced Analytical, Ankeny, Iowa) and quantified with a KAPA qPCR kit (Kapa Biosystems, Wilmington, Mass.). On the 8 sequencing lanes of a flow cell V4, the 32 libraries were pooled in equal proportions by sets of 4 libraries per lane, denatured with NaOH and diluted to […] before clustering. Cluster formation and primer hybridization and single-end read, 50-cycle sequencing were performed on the cBot and HiSeq 2500 (Illumina, San Diego, Calif.), respectively. Image analysis and base calling were performed using the HiSeq Control Software with the Real-Time Analysis component. Demultiplexing was performed using Illumina's sequencing analysis software. The quality of the data was assessed using FastQC from the Babraham Institute and the Illumina software SAV (Sequence Analysis Viewer). Potential contaminants were investigated with the FastQ Screen software from the Babraham Institute.
In the data preprocessing step, the HiSeq control and real-time analysis software generates image analysis, base calling, and base call quality automatically in real time. “Dirty” raw reads were defined as reads that contained adaptor sequence or high content of unknown bases and low-quality reads. […]

[1] = ABX464_I_vs_DMSO_I, infected CD4 T cells
[2] = ABX464_NI_vs_DMSO_NI, uninfected CD4 T cells
[3] = uninfected CD4+ T cells, ABX464 vs untreated

FC(F)(F)Oc1ccc(Nc2ccc3cccc(Cl)c3n2)cc1 [ABX464, 8-chloro-N-(4-(trifluoromethoxy)phenyl)quinolin-2-amine]
FC CECR1 [1]: 3.412 | FC DPF2 [1]: 3.071 | FC LARS2 [1]: 2.991 | FC LGALS3 [1]: 3.009 | FC NBPF20 [1]: 8.164 | FC NOP9 [1]: 3.02 | FC SCML1 [1]: 7.214 | FC TOR1AIP2 [1]: 14.39 | log2(FC) CECR1 [1]: 1.771 | log2(FC) DPF2 [1]: 1.619 | log2(FC) LARS2 [1]: 1.58 | log2(FC) LGALS3 [1]: 1.589 | log2(FC) NBPF20 [1]: 3.029 | log2(FC) NOP9 [1]: 1.594 | log2(FC) SCML1 [1]: 2.851 | log2(FC) TOR1AIP2 [1]: 3.847 | FC CECR1 [2]: 3.587 | FC DPF2 [2]: 2.95 | FC HELLS [2]: 0.2107 | FC HIST1H1D [2]: 0.3392 | FC HOPX [2]: 3.35 | FC LARS2 [2]: 2.99 | FC MZT2B [2]: 0.3168 | FC NDUFB7 [2]: 0.3486 | FC RPS19BP1 [2]: 0.3377 | FC SCML1 [2]: 9.378 | FC SNORD3A [2]: 0.1318 | FC TOR1AIP2 [2]: 11.2 | log2(FC) CECR1 [2]: 1.843 | log2(FC) DPF2 [2]: 1.561 | log2(FC) HELLS [2]: −2.246 | log2(FC) HIST1H1D [2]: −1.56 | log2(FC) HOPX [2]: 1.744 | log2(FC) LARS2 [2]: 1.58 | log2(FC) MZT2B [2]: −1.658 | log2(FC) NDUFB7 [2]: −1.52 | log2(FC) RPS19BP1 [2]: −1.566 | log2(FC) SCML1 [2]: 3.229 | log2(FC) SNORD3A [2]: −2.924 | log2(FC) TOR1AIP2 [2]: 3.486 | number of upregulated genes (infected CD4+ T cells, ABX464 vs untreated): 9 genes | number of downregulated genes (infected CD4+ T cells, ABX464 vs untreated (FIG. 2E legend)): 6 genes | number of downregulated genes [3]: 6 genes | number of upregulated genes [3]: 7 genes

Reference: patent US20220145406A1, “BIOMARKERS, AND USES IN TREATMENT OF VIRAL INFECTIONS, INFLAMMATIONS, OR CANCER” (ABIVAX, priority 2018, published 2022)
